Measured values as given in the supplement of paper PMC4862054.

What was measured:
Test in all cases: normalised viability (% of control), CellTiter-Blue; higher = more viable cells (about 100 = DMSO control)
Settings in all cases: incubation time: 72 h
CAL-148 = system: CAL-148
Procedure, shortened: (§1)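 Plates were quality-checked by Z'-factor and normalised to vehicle (100) and a positive kill control (0). The underlying assay incubated breast cancer cell lines for 72 h on 384-well plates with compound, then added 2.5 µl CellTiter-Blue for 2 h at 37 °C and read at 560/590 nm. The value is normalised viability at a single listed concentration of the series.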

CAL-85-1 = system: CAL-85-1
Procedure, shortened: as §1

HCC1599 = system: HCC1599
Procedure, shortened: as §1

MDA-MB-231 = system: MDA-MB-231
Procedure, shortened: as §1

MFM-223 = system: MFM-223
Procedure, shortened: as §1

CAL-51 = system: CAL-51
Procedure, shortened: as §1

Hs578T = system: Hs578T
Procedure, shortened: as §1

DU-4475 = system: DU-4475
Procedure, shortened: as §1

HCC1937 = system: HCC1937
Procedure, shortened: as §1

MDA-MB-453 = system: MDA-MB-453
Procedure, shortened: as §1

Row | Compound | normalised viability (CAL-148; 3 nM) | normalised viability (CAL-148; 30 nM) | normalised viability (CAL-148; 100 nM) | normalised viability (CAL-85-1; 3 nM) | normalised viability (CAL-85-1; 30 nM) | normalised viability (CAL-85-1; 100 nM) | normalised viability (HCC1599; 10 nM) | normalised viability (HCC1599; 1000 nM) | normalised viability (HCC1599; 10000 nM) | normalised viability (MDA-MB-231; 10 nM) | normalised viability (MDA-MB-231; 1000 nM) | normalised viability (MDA-MB-231; 10000 nM) | normalised viability (MFM-223; 10 nM) | normalised viability (MFM-223; 1000 nM) | normalised viability (MFM-223; 10000 nM) | normalised viability (CAL-51; 3 nM) | normalised viability (CAL-51; 30 nM) | normalised viability (CAL-51; 100 nM) | normalised viability (Hs578T; 10 nM) | normalised viability (Hs578T; 1000 nM) | normalised viability (Hs578T; 10000 nM) | normalised viability (DU-4475; 3 nM) | normalised viability (DU-4475; 30 nM) | normalised viability (DU-4475; 100 nM) | normalised viability (HCC1937; 10 nM) | normalised viability (HCC1937; 1000 nM) | normalised viability (HCC1937; 10000 nM) | normalised viability (MDA-MB-453; 3 nM) | normalised viability (MDA-MB-453; 30 nM) | normalised viability (MDA-MB-453; 100 nM)
1 | CC(=O)c1c(C)c2cnc(Nc3ccc(N4CCNCC4)cn3)nc2n(C2CCCC2)c1=O | 91% | 89.4% | 93.6% | 96.2% | 102% | 91.4% | 93.3% | 109% | 89.3% | 97.6% | 57.7% | 41.2% | 77.5% | 79.3% | 74% | 106% | 99.8% | 93.7% | 100% | 83.9% | 71.5% | 104% | 99.7% | 105% | 38.9% | 102% | 67.9% | 112% | 104% | 79.1%
2 | Cn1cc(C2=Nc3cc(NC(=O)C(N)C4CCCCC4)cc4c3C2=CNNC4=O)cn1 (stereo not given) | 88.3% | 93.5% | 94% | 89% | 78.3% | 90% | 94.6% | 52.8% | 42% | 81.7% | 85.6% | 34.5% | 86.1% | 57.3% | 62.2% | 104% | 87.2% | 93% | 122% | 35.1% | 29.5% | 89.6% | 82.9% | 86.3% | 98.2% | 55.3% | 22.7% | 96.7% | 94.9% | 72.4%
3 | COc1cc2c(cc1O)CC[C@@H]1[C@@H]2CC[C@]2(C)[C@@H](O)CC[C@@H]12 [2-methoxyestradiol] | 89.8% | 89.5% | 86% | 91.4% | 85.5% | 94.5% | 97.3% | 116% | 80.5% | 83.9% | 44.8% | 30.5% | 98.8% | 74.9% | 99.2% | 122% | 114% | 106% | 114% | 67.5% | 16.2% | 108% | 102% | 109% | 113% | 54.3% | 26.8% | 114% | 87.5% | 96.7%
4 | Cc1sc2c(c1C)C(c1ccc(Cl)cc1)=N[C@@H](CC(=O)OC(C)(C)C)c1nnc(C)n1-2 [(+)JQ1] | 95.7% | 103% | 97.3% | 93.2% | 82.6% | 80% | 115% | 58% | 54.6% | 107% | 32.8% | 35.9% | 99.3% | 54% | 45.4% | 100% | 96.9% | 104% | 100% | 61.4% | 44.8% | 104% | 77.6% | 90.1% | 109% | 62.9% | 55.9% | 111% | 107% | 84.5%
